Patent EP1345943B1, “INHIBITORS OF PAPILLOMA VIRUS” (BOEHRINGER INGELHEIM (CANADA) LTD., priority 2000, dated 2002)

Target: E1-E2-DNA complex (Human papillomavirus 11, UniProt P04015)
Test: E2-dependent E1 DNA binding assay (E1-E2 DNA assay)
Conditions: E1-E2 DNA assay of Example 11, HPV-11
Experimental: This particular assay determines the ability of a test compound to inhibit the activity (IC50) of HPV-11 DNA replication. More specifically, in the assay described herein, the inhibitory activity of the test compound is evaluated based on its ability to interfere with the E1-E2-DNA origin of replication interaction, thereby inhibiting initiation of viral DNA replication.
This assay was modeled on a similar assay for SV40 T Antigen described by McKay (J. Mol. Biol., 1981,145:471). A 400bp radiolabeled DNA probe, containing the -HPV-11 origin of replication (Chiang et al.., 1992, Proc. Natl.-Acad. Sci. USA 89:5799) was produced by pcr, using plasmid pBluescript™ SK encoding the origin (nucleotides 7886-61 of the HPV-11 genome in unique BAMH1 site) as template and primers flanking the origin. Radiolabel was incorporated as [33p]dCTP. Binding assay buffer consisted of: 20 mM Tris pH 7.6, 100 mM NaCI, 1 mM DTT, 1 mM EDTA.
Other reagents used were protein A-SPA beads (type II, Amersham) and K72 rabbit polyclonal antiserum, raised against a peptide corresponding to the C-terminal 14 amino acids of HPV-11 E1. Following the protocol from Amersham, one bottle of beads was mixed with 25 mL of binding assay buffer. For the assay, a saturating amount of K72 antiserum was added to the beads and the mixture was incubated for 1 h, washed with one volume of binding assay buffer, and then resuspended in the same volume of fresh binding assay buffer. Binding reactions contained 8 ng of E2, approximately 100-200 ng of purified E1, and 0.4 ng of radiolabeled probe in a total of 80 µL of binding assay buffer. After 1 h at room temperature, 25 µL of K72 antibody-SPA bead suspension was added to with the binding reaction and mixed. After an additional hour of incubation at room temperature, the reactions were centrifuged briefly to pellet the beads and the extent of complex formation was determined by scintillation counting on a Packard TopCount™. Typically, the signal for reactions containing E1 and E2 was 20-30 fold higher than the background observed when either E1, E2, or both was omitted.

Chain of E1-E2-DNA complex (P04015 whole entry, one chain of several): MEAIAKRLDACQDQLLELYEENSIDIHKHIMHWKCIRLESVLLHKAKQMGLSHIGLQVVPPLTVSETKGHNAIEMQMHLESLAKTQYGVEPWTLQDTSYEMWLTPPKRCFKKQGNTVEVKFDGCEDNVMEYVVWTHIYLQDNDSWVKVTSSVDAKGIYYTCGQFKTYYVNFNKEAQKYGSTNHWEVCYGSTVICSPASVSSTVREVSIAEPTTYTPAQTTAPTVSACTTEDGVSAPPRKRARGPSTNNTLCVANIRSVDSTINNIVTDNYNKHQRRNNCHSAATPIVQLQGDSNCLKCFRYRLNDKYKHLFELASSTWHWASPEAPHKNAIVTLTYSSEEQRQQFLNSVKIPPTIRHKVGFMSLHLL

| SMILES | IC50 [µM] |
| --- | --- |
| O=C(Nc1ccc2c(c1)OCO2)C1C(c2ccc(C(F)(F)F)c(F)c2)OC2(C(=O)c3ccccc3C2=O)C1C(=O)O (centres unmarked) [Compound 1045] | 0.5 to 5 |
| CC(C)(C)NC(=O)C1C(c2ccc(Cl)c(Cl)c2)OC2(C(=O)c3ccccc3C2=O)C1C(=O)O (centres unmarked) [Compound 1046] | 0.5 to 5 |
| O=C(Nc1ccc2c(c1)OCO2)C1C(c2ccc(Cl)c(Cl)c2)OC2(C(=O)c3cccc(F)c3C2=O)C1C(=O)O (centres unmarked) [Compound 1048] | 0.5 to 5 |
| O=C(Nc1ccc(Oc2ccccc2)cc1)C1C(c2ccc(Cl)c(Cl)c2)OC2(C(=O)c3ccccc3C2=O)C1C(=O)O (centres unmarked) [Compound 1049] | 0.5 to 5 |
| O=C(Nc1ccc2c(c1)OCO2)C1C(c2ccc(Cl)c(Cl)c2)OC2(C(=O)c3cccc(F)c3C2=O)C1C(=O)O (centres unmarked) [Compound 1051] | 0.5 to 5 |
| O=C(Nc1ccc(-c2csnn2)cc1)C1C(c2ccc(Cl)c(Cl)c2)OC2(C(=O)c3ccccc3C2=O)C1C(=O)O (centres unmarked) [Compound 1052] | < 0.5 |
| CS(=O)(=O)c1ccc(NC(=O)C2C(c3ccc(Cl)c(Cl)c3)OC3(C(=O)c4ccccc4C3=O)C2C(=O)O)cc1 (centres unmarked) [Compound 1053] | 0.5 to 5 |
| O=C(Nc1ccc(C2CCCCC2)cc1)C1C(c2ccc(Cl)c(Cl)c2)OC2(C(=O)c3ccccc3C2=O)C1C(=O)O (centres unmarked) [Compound 1054] | < 0.5 |
| CCc1ccc(NC(=O)C2C(c3ccc(Cl)c(Cl)c3)OC3(C(=O)c4ccccc4C3=O)C2C(=O)O)cc1 (centres unmarked) [Compound 1055] | 0.5 to 5 |
| CC(=O)c1ccc(NC(=O)C2C(c3ccc(C)c(C)c3)OC3(C(=O)c4ccccc4C3=O)C2C(=O)O)cc1 (centres unmarked) [Compound 1056] | 0.5 to 5 |
| O=C(Nc1ccc(NC(=O)C2C(c3ccc(Cl)c(Cl)c3)OC3(C(=O)c4ccccc4C3=O)C2C(=O)O)cc1)c1ccccc1 (centres unmarked) [Compound 1057] | 0.5 to 5 |
| O=C(NC1CC1c1ccccc1)C1C(c2ccc(Cl)c(Cl)c2)OC2(C(=O)c3ccccc3C2=O)C1C(=O)O (centres unmarked) [Compound 1058] | 0.5 to 5 |
| O=C(Nc1ccc(N2CCOCC2)cc1)C1C(c2ccc(F)c(F)c2)OC2(C(=O)c3ccccc3C2=O)C1C(=O)O (centres unmarked) [Compound 1059] | 0.5 to 5 |
| CC(C)(C)c1ccc(NC(=O)C2C(c3ccc(Cl)c(Cl)c3)OC3(C(=O)c4ccccc4C3=O)C2C(=O)O)cc1 (centres unmarked) [Compound 1060] | 0.5 to 5 |
| O=C(Nc1cnc2ccccc2c1)C1C(c2ccc(F)c(F)c2)OC2(C(=O)c3ccccc3C2=O)C1C(=O)O (centres unmarked) [Compound 1061] | 5 to 50 |
| O=C(Nc1ccc(Cl)cc1)C1C(c2ccc(F)c(F)c2)OC2(C(=O)c3ccccc3C2=O)C1C(=O)O (centres unmarked) [Compound 1062] | 5 to 50 |
| O=C(Nc1ccc(Cl)cc1)C1C(c2ccc(Cl)c(Cl)c2)OC2(C(=O)c3ccccc3C2=O)C1C(=O)O (centres unmarked) [Compound 1063] | 0.5 to 5 |
| CC(=O)c1ccc(NC(=O)C2C(c3ccc(F)c(F)c3)OC3(C(=O)c4ccccc4C3=O)C2C(=O)O)cc1 (centres unmarked) [Compound 1064] | 5 to 50 |
| Cc1ccc(NC(=O)C2C(c3ccc(Cl)c(Cl)c3)OC3(C(=O)c4ccccc4C3=O)C2C(=O)O)cc1 (centres unmarked) [Compound 1065] | 0.5 to 5 |

| SMILES | IC50 [µM] |
| --- | --- |
| O=C(NC1CC1c1ccccc1)C1C(c2ccc(Cl)c(Cl)c2)OC2(C(=O)c3ccccc3C2=O)C1C(=O)O (centres unmarked) [Compound 1066] | < 0.5 |
| CC(=O)c1ccc(NC(=O)C2C(c3ccc(C(F)(F)F)c(F)c3)OC3(C(=O)c4ccccc4C3=O)C2C(=O)O)cc1 (centres unmarked) [Compound 1067] | 5 to 50 |
| O=C(Nc1ccccc1)C1C(c2ccc(F)c(F)c2)OC2(C(=O)c3ccccc3C2=O)C1C(=O)O (centres unmarked) [Compound 1068] | 5 to 50 |
| N#Cc1ccc(NC(=O)C2C(c3ccc(Cl)c(Cl)c3)OC3(C(=O)c4ccccc4C3=O)C2C(=O)O)cc1 (centres unmarked) [Compound 1070] | 0.5 to 5 |
| Cc1ccc(C2OC3(C(=O)c4ccccc4C3=O)C(C(=O)O)C2C(=O)Nc2cnc3ccccc3c2)cc1C (centres unmarked) [Compound 1071] | 5 to 50 |
| CSc1ccc(NC(=O)C2C(c3ccc(F)c(F)c3)OC3(C(=O)c4ccccc4C3=O)C2C(=O)O)cc1 (centres unmarked) [Compound 1073] | 5 to 50 |
| CC(C)(C)c1ccc(NC(=O)C2C(c3ccc(Br)c(Br)c3)OC3(C(=O)c4ccccc4C3=O)C2C(=O)O)cc1 (centres unmarked) [Compound 1079] | 5 to 50 |
| N#Cc1cccc(C2OC3(C(=O)c4ccccc4C3=O)C(C(=O)O)C2C(=O)Nc2ccc3c(c2)OCO3)c1 (centres unmarked) [Compound 1080] | 5 to 50 |
| CSc1ccc(NC(=O)C2C(c3ccc(Br)c(Br)c3)OC3(C(=O)c4ccccc4C3=O)C2C(=O)O)cc1 (centres unmarked) [Compound 1081] | < 0.5 |
| O=C(NC1CCCCC1)C1C(c2ccc(Cl)c(Cl)c2)OC2(C(=O)c3ccccc3C2=O)C1C(=O)O (centres unmarked) [Compound 1082] | 0.5 to 5 |
| O=C(Nc1ccc(-c2csnn2)cc1)C1C(c2ccc(F)c(F)c2)OC2(C(=O)c3ccccc3C2=O)C1C(=O)O (centres unmarked) [Compound 1083] | 0.5 to 5 |
| O=C(Nc1ccc2c(c1)OCO2)C1C(c2ccc(Br)c(Br)c2)OC2(C(=O)c3ccccc3C2=O)C1C(=O)O (centres unmarked) [Compound 1084] | < 0.5 |
| N#Cc1cccc(C2OC3(C(=O)c4ccccc4C3=O)C(C(=O)O)C2C(=O)Nc2ccc(N3CCOCC3)cc2)c1 (centres unmarked) [Compound 1085] | 5 to 50 |
| CS(=O)(=O)c1ccc(NC(=O)C2C(c3ccc(Br)c(Br)c3)OC3(C(=O)c4ccccc4C3=O)C2C(=O)O)cc1 (centres unmarked) [Compound 1086] | < 0.5 |
| CC(=O)Nc1ccc(NC(=O)C2C(c3ccc(Br)c(Br)c3)OC3(C(=O)c4ccccc4C3=O)C2C(=O)O)cc1 (centres unmarked) [Compound 1092] | < 0.5 |
| O=C(NN1CCOCC1)C1C(c2ccc(F)c(Cl)c2)OC2(C(=O)c3ccccc3C2=O)C1C(=O)O (centres unmarked) [Compound 1093] | 5 to 50 |
| CC(=O)c1ccc(NC(=O)C2C(c3ccc(F)c(Cl)c3)OC3(C(=O)c4ccccc4C3=O)C2C(=O)O)cc1 (centres unmarked) [Compound 1094] | 0.5 to 5 |
| O=C(Nc1cc(F)cc(F)c1)C1C(c2ccc(Cl)c(Cl)c2)OC2(C(=O)c3ccccc3C2=O)C1C(=O)O (centres unmarked) [Compound 1096] | 0.5 to 5 |
| O=C(NCCc1ccccc1)C1C(c2ccc(Br)c(Br)c2)OC2(C(=O)c3ccccc3C2=O)C1C(=O)O (centres unmarked) [Compound 1097] | < 0.5 |

| SMILES | IC50 [µM] |
| --- | --- |
| O=C(NC1Cc2ccccc2C1)C1C(c2ccc(Cl)c(Cl)c2)OC2(C(=O)c3ccccc3C2=O)C1C(=O)O (centres unmarked) [Compound 1098] | 0.5 to 5 |
| O=C(NC1CCCCC1)C1C(c2ccc(Br)c(Br)c2)OC2(C(=O)c3ccccc3C2=O)C1C(=O)O (centres unmarked) [Compound 1099] | < 0.5 |
| O=C(c1ccccc1)c1cccc(NC(=O)C2C(c3ccc(Cl)c(Cl)c3)OC3(C(=O)c4ccccc4C3=O)C2C(=O)O)c1 (centres unmarked) [Compound 1100] | 0.5 to 5 |
| O=C(Nc1ccc(Cl)cc1)C1C(c2ccc(Cl)c(Cl)c2)OC2(C(=O)c3ccccc3C2=O)C1C(=O)O (centres unmarked) [Compound 1101] | 0.5 to 5 |
| O=C(c1ccccc1)c1cccc(NC(=O)C2C(c3ccc(Br)c(Br)c3)OC3(C(=O)c4ccccc4C3=O)C2C(=O)O)c1 (centres unmarked) [Compound 1103] | 0.5 to 5 |
| O=C(Nc1ccc(Br)c(Cl)c1)C1C(c2ccc(Cl)c(Cl)c2)OC2(C(=O)c3ccccc3C2=O)C1C(=O)O (centres unmarked) [Compound 1104] | 0.5 to 5 |
| O=C(Nc1ccc(F)c(F)c1)C1C(c2ccc(Br)c(Br)c2)OC2(C(=O)c3ccccc3C2=O)C1C(=O)O (centres unmarked) [Compound 1105] | 0.5 to 5 |
| CC(=O)c1ccc(NC(=O)C2C(c3ccc(Cl)c(Cl)c3)OC3(C(=O)c4ccc(F)cc4C3=O)C2C(=O)O)cc1 (centres unmarked) [Compound 1106] | 0.5 to 5 |
| CC(=O)c1ccc(NC(=O)C2C(c3ccc(Cl)c(Cl)c3)OC3(C(=O)c4ccc(F)cc4C3=O)C2C(=O)O)cc1 (centres unmarked) [Compound 1107] | 0.5 to 5 |
| CC(=O)Nc1ccc(NC(=O)C2C(c3ccc(Cl)c(Cl)c3)OC3(C(=O)c4ccccc4C3=O)C2C(=O)O)cc1 (centres unmarked) [Compound 1108] | 0.5 to 5 |
| O=C(Nc1ccc(Cl)cc1)C1C(c2ccc(Br)c(Br)c2)OC2(C(=O)c3ccccc3C2=O)C1C(=O)O (centres unmarked) [Compound 1110] | < 0.5 |
| O=C(Nc1ccc(F)c(F)c1)C1C(c2ccc(Cl)c(Cl)c2)OC2(C(=O)c3ccccc3C2=O)C1C(=O)O (centres unmarked) [Compound 1111] | 0.5 to 5 |
| O=C(Nc1ccc(OC(F)(F)F)cc1)C1C(c2ccc(Cl)c(Cl)c2)OC2(C(=O)c3ccccc3C2=O)C1C(=O)O (centres unmarked) [Compound 1112] | 0.5 to 5 |
| O=C(NC1Cc2ccccc2C1)C1C(c2ccc(Br)c(Br)c2)OC2(C(=O)c3ccccc3C2=O)C1C(=O)O (centres unmarked) [Compound 1113] | < 0.5 |
| CC(=O)c1ccc(NC(=O)C2C(c3ccc(Cl)c(Cl)c3)OC3(C(=O)c4ccc(Cl)cc4C3=O)C2C(=O)O)cc1 (centres unmarked) [Compound 1114] | 0.5 to 5 |
| O=C(NCCc1ccccc1)C1C(c2ccc(F)c(Cl)c2)OC2(C(=O)c3ccccc3C2=O)C1C(=O)O (centres unmarked) [Compound 1115] | 0.5 to 5 |
| CC(=O)c1ccc(NC(=O)C2C(c3ccc(Cl)c(Cl)c3)OC3(C(=O)c4ccc(Cl)cc4C3=O)C2C(=O)O)cc1 (centres unmarked) [Compound 1116] | 5 to 50 |
| O=C(Nc1cc2c(cc1[N+](=O)[O-])OCO2)C1C(c2ccc(Cl)c(Cl)c2)OC2(C(=O)c3ccccc3C2=O)C1C(=O)O (centres unmarked) [Compound 1117] | 0.5 to 5 |
